We go through 4 compounds from US5840684A, “Glycopeptide antibiotic derivatives” (Eli Lilly and Company, priority 1995, dated 1998).

In assay [1] the test system is Streptococcus pneumoniae P1. The assay can be described thus: broth micro-dilution MIC. The format is cell-based. How it is done: (§1) The formula I compounds have in vitro and in vivo activity against Gram-positive pathogenic bacteria. The MIC's were determined using a standard broth micro-dilution assay.
Assay [2] concerns Staphylococcus haemolyticus 415. The assay can be described thus: broth micro-dilution MIC. The class given is cell-based. On the procedure:
as §1

Another assay concerns Escherichia coli EC14. As to the kind of experiment: broth micro-dilution MIC. The class given is cell-based. On the procedure: as §1
For assay [3], the system named is Staphylococcus haemolyticus 105. The assay can be described thus: broth micro-dilution MIC. The class given is cell-based. On the procedure: as §1
In assay [4] the test system is Enterococcus gallinarum 245. As to the kind of experiment: broth micro-dilution MIC. The class given is cell-based. Particulars: Enterococcus gallinarum 245. How it is done: as §1
For a further assay, the system named is Entercoccus faecium 180. The assay can be described thus: broth micro-dilution MIC. As to conditions: Entercoccus faecium 180. The format is cell-based. How it is done: as §1
Assay [5] relates to Haemophilus influenzae RD. As to the kind of experiment: broth micro-dilution MIC. The format is cell-based. As to conditions: Haemophilus influenzae RD. How it is done: as §1
For assay [6], the system named is Staphylococcus epidermidis 270. As to the kind of experiment: broth micro-dilution MIC. The format is cell-based. On the procedure: as §1
In another assay the test system is Entercoccus faecium 2041. The assay can be described thus: broth micro-dilution MIC. The format is cell-based. As to conditions: Entercoccus faecium 2041. On the procedure: as §1
For assay [7], the system named is vancomycin-resistant enterococci. As to the kind of experiment: broth micro-dilution, mean geometric MIC. The format is cell-based, Enterococcus faecium and Enterococcus faecalis. As to conditions: enterococci, 24-hour incubation.
Assay [8] deals with Staphylococcus aureus SA1199B. The format is cell-based. On the procedure:
(§2) The MIC's were determined using a standard broth micro-dilution assay.

Assay [9] deals with Staphylococcus aureus S13E. The format is cell-based. How it is done:
as §2

Assay [10] deals with Staphylococcus aureus 446. As to the kind of experiment: broth micro-dilution MIC. The format is cell-based. How it is done:
as §2

Assay [11] has as its system Staphylococcus aureus X778. As to the kind of experiment: broth micro-dilution MIC. The class given is cell-based. How it is done:
as §2

Assay [12] concerns Staphylococcus aureus 489. As to the kind of experiment: broth micro-dilution MIC. The class given is cell-based. How it is done:
as §2

Assay [13] deals with Entercoccus faecium 180-1. The assay can be described thus: broth micro-dilution MIC. The class given is cell-based. On the procedure: as §2
Assay [14] relates to Staphylococcus aureus X400. The assay can be described thus: broth micro-dilution MIC. The format is cell-based. How it is done: as §2
In assay [15] the test system is Staphylococcus aureus SA1199. The assay can be described thus: broth micro-dilution MIC. The class given is cell-based. On the procedure:
as §2

For assay [16], the system named is Staphylococcus aureus 447. As to the kind of experiment: broth micro-dilution MIC. The class given is cell-based. How it is done: as §2
The subject of assay [17] is Streptococcus pyogenes C203. The assay can be described thus: broth micro-dilution MIC. The class given is cell-based. On the procedure: as §2
Assay [18] concerns Staphylococcus aureus SA1199A. As to the kind of experiment: broth micro-dilution MIC. The class given is cell-based. On the procedure:
as §2

A further assay has as its system Entercoccus faecium 276. As to the kind of experiment: broth micro-dilution MIC. The class given is cell-based. On the procedure:
as §2

The subject of assay [19] is Staphylococcus aureus 491. As to the kind of experiment: broth micro-dilution MIC. The class given is cell-based. How it is done:
as §2

In assay [20] the test system is vancomycin-susceptible enterococci. The assay can be described thus: broth micro-dilution, mean geometric MIC. The format is cell-based, Enterococcus faecium and Enterococcus faecalis. As to conditions: enterococci, 24-hour incubation.

Values after ≈ are worked out from the molar mass of the structure shown.

Regarding `CNC(CC(C)C)C(=O)NC1C(=O)NC(CC(N)=O)C(=O)NC2C(=O)NC3C(=O)NC(C(=O)NC(C(=O)O)c4cc(O)cc(O)c4-c4cc3ccc4O)C(OC3CC(C)(NCc4ccc(-c5ccc([N+](=O)[O-])cc5)cc4)C(O)C(C)O3)c3ccc(c(Cl)c3)Oc3cc2cc(c3OC2OC(CO)C(O)C(O)C2OC2CC(C)(NCc3ccc(-c4ccc([N+](=O)[O-])cc4)cc3)C(O)C(C)O2)Oc2ccc(cc2Cl)C1O` (stereo not drawn) [Compound 263], the MIC in assay [1] is at most 0.06 µg/mL; in assay [2], 8 µg/mL (≈ 3.97 µM); with Escherichia coli EC14, 65 µg/mL (≈ 32.3 µM); in assay [3] it was 16 µg/mL (≈ 7.94 µM); in [4], 8 µg/mL (≈ 3.97 µM); in the assay with Entercoccus faecium 180, at most 0.06 µg/mL. Further, the MIC in assay [5] was above 64 µg/mL; in [6], 4 µg/mL (≈ 1.99 µM); in the assay on Entercoccus faecium 2041 it was at most 0.06 µg/mL; in assay [8] it was 1 µg/mL (≈ 0.496 µM); in [9] it was 1 µg/mL (≈ 0.496 µM); in assay [10], 1 µg/mL (≈ 0.496 µM). The MIC in assay [11] is 0.5 µg/mL (≈ 0.248 µM); in [12] it was 0.25 µg/mL (≈ 0.124 µM); in assay [13] it was at most 0.06 µg/mL; in assay [14], 0.5 µg/mL (≈ 0.248 µM); in assay [15] it was 1 µg/mL (≈ 0.496 µM); in assay [16] it was 2 µg/mL (≈ 0.993 µM). The MIC in assay [17] was at most 0.06 µg/mL; in assay [18] it was at most 0.06 µg/mL; in the assay on Entercoccus faecium 276, 0.5 µg/mL (≈ 0.248 µM); in assay [19] it was 1 µg/mL (≈ 0.496 µM). Moreover, the “mean geometric MIC, Vancomycin Resistant Strains” value in assay [7] came to 1.7 µg/mL. The “mean geometric MIC, Vancomycin Sensitive Strains” value in assay [20] was found to be 0.29 µg/mL.

Regarding `CC(C)CC(C(=O)NC1C(=O)NC(CC(N)=O)C(=O)NC2C(=O)NC3C(=O)NC(C(=O)NC(C(=O)O)c4cc(O)cc(O)c4-c4cc3ccc4O)C(OC3CC(C)(N)C(O)C(C)O3)c3ccc(c(Cl)c3)Oc3cc2cc(c3OC2OC(CO)C(O)C(O)C2OC2CC(C)(NCc3ccc4c(c3)CCCC4)C(O)C(C)O2)Oc2ccc(cc2Cl)C1O)N(C)Cc1ccc2c(c1)CCCC2` (stereo not drawn) [Compound 258], the MIC is at most 0.06 µg/mL in assay [1]; 2 µg/mL (≈ 1.06 µM) in assay [2]; above 64 µg/mL against Escherichia coli EC14; 1 µg/mL (≈ 0.532 µM) in [3]; 1 µg/mL (≈ 0.532 µM) in [4]; 1 µg/mL (≈ 0.532 µM) in the assay on Entercoccus faecium 180. In addition, the MIC was above 64 µg/mL in assay [5]; 2 µg/mL (≈ 1.06 µM) in assay [6]; 0.5 µg/mL (≈ 0.266 µM) in the assay on Entercoccus faecium 2041; 0.25 µg/mL (≈ 0.133 µM) in assay [8]; 2 µg/mL (≈ 1.06 µM) in assay [9]; 1 µg/mL (≈ 0.532 µM) in assay [10]. Also, the MIC in assay [11] came out at 1 µg/mL (≈ 0.532 µM); in [12] it was 1 µg/mL (≈ 0.532 µM); in [13], 4 µg/mL (≈ 2.13 µM); in assay [14] it was 2 µg/mL (≈ 1.06 µM); in [15], 2 µg/mL (≈ 1.06 µM); in assay [16], 1 µg/mL (≈ 0.532 µM). For the same compound, the MIC is at most 0.06 µg/mL in assay [17], 2 µg/mL (≈ 1.06 µM) in assay [18], 1 µg/mL (≈ 0.532 µM) in the assay with Entercoccus faecium 276 and 1 µg/mL (≈ 0.532 µM) in assay [19]. In addition, the “mean geometric MIC, Vancomycin Resistant Strains” value in assay [7] is 8 µg/mL. For the same compound, the “mean geometric MIC, Vancomycin Sensitive Strains” value in assay [20] worked out at 1 µg/mL.

With `CNC(CC(C)C)C(=O)NC1C(=O)NC(CC(N)=O)C(=O)NC2C(=O)NC3C(=O)NC(C(=O)NC(C(=O)O)c4cc(O)cc(O)c4-c4cc3ccc4O)C(OC3CC(C)(NCc4ccc(OCCOC(C)(C)C)cc4)C(O)C(C)O3)c3ccc(c(Cl)c3)Oc3cc2cc(c3OC2OC(CO)C(O)C(O)C2OC2CC(C)(NCc3ccc(OCCOC(C)(C)C)cc3)C(O)C(C)O2)Oc2ccc(cc2Cl)C1O` (stereo not drawn) [Compound 288], the MIC in assay [1] is at most 0.06 µg/mL; in assay [2], 4 µg/mL (≈ 1.99 µM); in the assay with Escherichia coli EC14 it was above 64 µg/mL; in [3], 2 µg/mL (≈ 0.997 µM); in assay [4] it was 2 µg/mL (≈ 0.997 µM); in the assay with Entercoccus faecium 180, 4 µg/mL (≈ 1.99 µM). Also, the MIC in [5] was above 64 µg/mL; in [6] it was 1 µg/mL (≈ 0.499 µM); against Entercoccus faecium 2041, 1 µg/mL (≈ 0.499 µM); in [8] it was 1 µg/mL (≈ 0.499 µM); in assay [9] it was 2 µg/mL (≈ 0.997 µM); in assay [10] it was 2 µg/mL (≈ 0.997 µM). Also, the MIC in assay [11] is 2 µg/mL (≈ 0.997 µM); in assay [12], 2 µg/mL (≈ 0.997 µM); in assay [13], 1 µg/mL (≈ 0.499 µM); in assay [14], 2 µg/mL (≈ 0.997 µM); in assay [15], 2 µg/mL (≈ 0.997 µM); in [16], 2 µg/mL (≈ 0.997 µM). The MIC in assay [17] is at most 0.06 µg/mL; in assay [18] it was 1 µg/mL (≈ 0.499 µM); against Entercoccus faecium 276, 2 µg/mL (≈ 0.997 µM); in assay [19] it was 2 µg/mL (≈ 0.997 µM). In [7], the “mean geometric MIC, Vancomycin Resistant Strains” value was 11 µg/mL. Also, the “mean geometric MIC, Vancomycin Sensitive Strains” value in [20] turned out to be 1.7 µg/mL.

On to `CNC(CC(C)C)C(=O)NC1C(=O)NC(CC(N)=O)C(=O)NC2C(=O)NC3C(=O)NC(C(=O)NC(C(=O)O)c4cc(O)cc(O)c4-c4cc3ccc4O)C(OC3CC(C)(NCc4cnc5ccccc5c4)C(O)C(C)O3)c3ccc(c(Cl)c3)Oc3cc2cc(c3OC2OC(CO)C(O)C(O)C2OC2CC(C)(NCc3cnc4ccccc4c3)C(O)C(C)O2)Oc2ccc(cc2Cl)C1O` (stereo not drawn) [Compound 275], for which the MIC in assay [1] is at most 0.06 µg/mL; in [2] it was 4 µg/mL (≈ 2.13 µM); against Escherichia coli EC14 it was above 64 µg/mL; in assay [3], 1 µg/mL (≈ 0.533 µM); in assay [4], 4 µg/mL (≈ 2.13 µM); against Entercoccus faecium 180 it was 1 µg/mL (≈ 0.533 µM). The MIC was above 64 µg/mL in [5]; 1 µg/mL (≈ 0.533 µM) in assay [6]; at most 0.06 µg/mL in the assay with Entercoccus faecium 2041; 0.125 µg/mL (≈ 0.0667 µM) in [8]; 0.125 µg/mL (≈ 0.0667 µM) in assay [9]; 0.25 µg/mL (≈ 0.133 µM) in [10]. For the same compound, the MIC in [11] was at most 0.06 µg/mL; in assay [12] it was at most 0.06 µg/mL; in [13], at most 0.06 µg/mL; in [14], 0.25 µg/mL (≈ 0.133 µM); in assay [15], at most 0.06 µg/mL; in assay [16] it was 1 µg/mL (≈ 0.533 µM). Moreover, the MIC in assay [17] was at most 0.06 µg/mL; in assay [18], at most 0.06 µg/mL; in the assay with Entercoccus faecium 276, at most 0.06 µg/mL; in assay [19], 1 µg/mL (≈ 0.533 µM). Besides, the “mean geometric MIC, Vancomycin Resistant Strains” value in assay [7] stood at 16 µg/mL. Further, in assay [20], the “mean geometric MIC, Vancomycin Sensitive Strains” value is 0.33 µg/mL.
